# Source: ChEMBL document CHEMBL1201862, “PubChem BioAssay data set” (2004)
#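 Test compounds were applied to cells in 96-well plates for 48 hours at 5 doses. GI50: concentration for 50% inhibition of growth.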 Calls of active or inactive are those of the source. Rule as the data show it: active = GI50 up to about 1.1 µM and inactive = higher.
# Columns and labels:
# Experiment in all cases: inhibition of tumour cell growth, NCI panel, 48 h
# COLO 205 = system: COLO 205
# NCI/ADR-RES = system: NCI/ADR-RES
# Malme-3M = system: Malme-3M
# M14 = system: M14
# OVCAR-8 = system: OVCAR-8
# SF-295 = system: SF-295
# U-251 = system: U-251
# UACC-62 = system: UACC-62
# HOP-62 = system: HOP-62
# T47D = system: T47D
# PC-3 = system: PC-3
# LOX IMVI = system: LOX IMVI
# KM12 = system: KM12
# RPMI-8226 = system: RPMI-8226
# SNB-75 = system: SNB-75
# SF-268 = system: SF-268
# SK-MEL-2 = system: SK-MEL-2
# NCI-H23 = system: NCI-H23
# MOLT-4 = system: MOLT-4
Compound,GI50 (COLO 205),GI50 (NCI/ADR-RES),GI50 (Malme-3M),GI50 (M14),GI50 (OVCAR-8),GI50 (SF-295),GI50 (U-251),GI50 (UACC-62),GI50 (HOP-62),GI50 (T47D),GI50 (PC-3),GI50 (LOX IMVI),GI50 (KM12),GI50 (RPMI-8226),GI50 (SNB-75),GI50 (SF-268),GI50 (SK-MEL-2),GI50 (NCI-H23),GI50 (MOLT-4)
Cc1ccc2occ/c(=N\Nc3ccccc3)c2c1,41.1 µM (inactive),39 µM (inactive),29.5 µM (inactive),43 µM (inactive),72.9 µM (inactive),32.2 µM (inactive),66.1 µM (inactive),> 100 µM (inactive),32.6 µM (inactive),1.33 µM (inactive),63.1 µM (inactive),66.2 µM (inactive),12.7 µM (inactive),25.1 µM (inactive),24.3 µM (inactive),> 100 µM (inactive),> 100 µM (inactive),28.1 µM (inactive),
CC1=NN(C(=O)c2ccccc2O)C(=O)/C1=C/c1ccc([N+](=O)[O-])cc1,16.5 µM (inactive),0.664 µM (active),0.247 µM (active),0.437 µM (active),0.203 µM (active),0.131 µM (active),0.0991 µM (active),0.0603 µM (active),0.536 µM (active),1.89 µM (inactive),1.36 µM (inactive),0.267 µM (active),0.161 µM (active),1.88 µM (inactive),0.248 µM (active),0.0855 µM (active),,0.177 µM (active),
CCOC(=O)NNC(=O)NCc1ccccc1CNC(=O)NNC(=O)OCC,> 100 µM (inactive),> 100 µM (inactive),> 100 µM (inactive),> 100 µM (inactive),> 100 µM (inactive),,> 100 µM (inactive),> 100 µM (inactive),,> 100 µM (inactive),> 100 µM (inactive),> 100 µM (inactive),> 100 µM (inactive),> 100 µM (inactive),> 100 µM (inactive),> 100 µM (inactive),> 100 µM (inactive),> 100 µM (inactive),> 100 µM (inactive)
N/C(=N/O)c1cn(C2OC(CO)C(O)C2O)c2ncnc(NO)c12 (stereo not drawn),0.0771 µM (active),0.203 µM (active),0.0373 µM (active),0.126 µM (active),0.242 µM (active),0.773 µM (active),0.226 µM (active),0.362 µM (active),0.366 µM (active),0.037 µM (active),0.0621 µM (active),0.123 µM (active),,0.146 µM (active),0.222 µM (active),0.164 µM (active),< 0.0131 µM (active),0.216 µM (active),0.0871 µM (active)
CC(C)(C)CC(C)(C)c1cc(O)c(O)c(CN2CCCCC2)c1,12.7 µM (inactive),5.09 µM (inactive),12.8 µM (inactive),15.6 µM (inactive),15.6 µM (inactive),17.5 µM (inactive),11.9 µM (inactive),16.3 µM (inactive),15.5 µM (inactive),11.6 µM (inactive),13.9 µM (inactive),12 µM (inactive),17.5 µM (inactive),12.8 µM (inactive),17.7 µM (inactive),12.6 µM (inactive),,16.1 µM (inactive),4.35 µM (inactive)
C=CCN(C(=O)OC(C)(C)C)[C@H](C)C(=O)N[C@@H](C)C(=O)OC,> 100 µM (inactive),> 100 µM (inactive),> 100 µM (inactive),> 100 µM (inactive),> 100 µM (inactive),> 100 µM (inactive),> 100 µM (inactive),> 100 µM (inactive),> 100 µM (inactive),> 100 µM (inactive),> 100 µM (inactive),> 100 µM (inactive),> 100 µM (inactive),> 100 µM (inactive),,> 100 µM (inactive),> 100 µM (inactive),> 100 µM (inactive),> 100 µM (inactive)
CNC(=O)c1nnn(Cc2ccccc2)c1S,> 100 µM (inactive),> 100 µM (inactive),,> 100 µM (inactive),> 100 µM (inactive),> 100 µM (inactive),> 100 µM (inactive),> 100 µM (inactive),> 100 µM (inactive),> 100 µM (inactive),> 100 µM (inactive),,> 100 µM (inactive),> 100 µM (inactive),> 100 µM (inactive),,> 100 µM (inactive),> 100 µM (inactive),> 100 µM (inactive)
Fc1ccc(Nc2nnc(-c3ccccn3)s2)cc1,> 100 µM (inactive),> 100 µM (inactive),> 100 µM (inactive),> 100 µM (inactive),> 100 µM (inactive),> 100 µM (inactive),> 100 µM (inactive),> 100 µM (inactive),> 100 µM (inactive),5.22 µM (inactive),> 100 µM (inactive),> 100 µM (inactive),> 100 µM (inactive),> 100 µM (inactive),,> 100 µM (inactive),> 100 µM (inactive),> 100 µM (inactive),> 100 µM (inactive)
CC(C)=CCc1cc2c(cc1O)OC[C@H]1c3cc4c(cc3O[C@@H]21)OCO4,> 100 µM (inactive),29.8 µM (inactive),,62.1 µM (inactive),> 100 µM (inactive),> 100 µM (inactive),37.5 µM (inactive),> 100 µM (inactive),91.6 µM (inactive),34.4 µM (inactive),23.3 µM (inactive),17.3 µM (inactive),39.6 µM (inactive),,78.7 µM (inactive),56.6 µM (inactive),,33.2 µM (inactive),22.1 µM (inactive)
CN(C)C(=O)OC(Cn1cncn1)(Cn1cncn1)c1ccc(Cl)cc1Cl,> 100 µM (inactive),> 100 µM (inactive),,> 100 µM (inactive),> 100 µM (inactive),> 100 µM (inactive),> 100 µM (inactive),,> 100 µM (inactive),> 100 µM (inactive),> 100 µM (inactive),> 100 µM (inactive),> 100 µM (inactive),> 100 µM (inactive),> 100 µM (inactive),> 100 µM (inactive),71.8 µM (inactive),,> 100 µM (inactive)
COC(=O)C(=O)C(C(=O)C(=O)Nc1ccc(C)cc1)c1nc2ccc(C(=O)c3ccccc3)cc2nc1O (stereo not drawn),,22.5 µM (inactive),> 100 µM (inactive),,42.2 µM (inactive),65 µM (inactive),> 100 µM (inactive),> 100 µM (inactive),46.9 µM (inactive),79.4 µM (inactive),43.7 µM (inactive),> 100 µM (inactive),30.4 µM (inactive),> 100 µM (inactive),22.3 µM (inactive),73.6 µM (inactive),> 100 µM (inactive),> 100 µM (inactive),
Cc1cc(C)c2c(=O)n(CN3CC4Nc5ccccc5C4C3)sc2n1 (stereo not drawn),26.1 µM (inactive),35.6 µM (inactive),11.7 µM (inactive),23.8 µM (inactive),21.2 µM (inactive),> 100 µM (inactive),31.3 µM (inactive),23.8 µM (inactive),35.6 µM (inactive),81.8 µM (inactive),21.3 µM (inactive),21.8 µM (inactive),> 100 µM (inactive),11.3 µM (inactive),,14.8 µM (inactive),22.5 µM (inactive),22 µM (inactive),29.6 µM (inactive)
CC1CCC2C(C)C(=O)OC2C2(C)C(=O)C=CC12 (stereo not drawn),> 10 µM (inactive),> 10 µM (inactive),,> 10 µM (inactive),> 10 µM (inactive),> 10 µM (inactive),> 10 µM (inactive),> 10 µM (inactive),> 10 µM (inactive),> 10 µM (inactive),> 10 µM (inactive),8.69 µM (inactive),> 10 µM (inactive),8.47 µM (inactive),> 10 µM (inactive),> 10 µM (inactive),9.4 µM (inactive),> 10 µM (inactive),6.59 µM (inactive)
COC(=O)c1ccccc1CC1Cc2cccc(C)c2C1=O (stereo not drawn),20.3 µM (inactive),32.7 µM (inactive),19.2 µM (inactive),34.8 µM (inactive),35 µM (inactive),38.9 µM (inactive),33 µM (inactive),30.5 µM (inactive),> 100 µM (inactive),25.8 µM (inactive),24 µM (inactive),22.4 µM (inactive),27 µM (inactive),,22.7 µM (inactive),37.8 µM (inactive),21.8 µM (inactive),57.5 µM (inactive),19.9 µM (inactive)
Cc1cn(CC2=NCC(C)(C)N2)c(=O)[nH]c1=O,> 100 µM (inactive),> 100 µM (inactive),> 100 µM (inactive),> 100 µM (inactive),> 100 µM (inactive),> 100 µM (inactive),> 100 µM (inactive),> 100 µM (inactive),> 100 µM (inactive),> 100 µM (inactive),> 100 µM (inactive),> 100 µM (inactive),,> 100 µM (inactive),> 100 µM (inactive),> 100 µM (inactive),> 100 µM (inactive),> 100 µM (inactive),> 100 µM (inactive)
NC(=O)C(c1ccccc1)N1OC2C(=O)N(c3cccc4ccccc34)C(=O)C2C1c1c2ccccc2c(Cl)c2ccccc12 (stereo not drawn),7.85 µM (inactive),5.15 µM (inactive),11.6 µM (inactive),7.03 µM (inactive),9.29 µM (inactive),9.75 µM (inactive),7.57 µM (inactive),6.93 µM (inactive),11 µM (inactive),8.93 µM (inactive),6.98 µM (inactive),6.1 µM (inactive),1.59 µM (inactive),,8.97 µM (inactive),9.1 µM (inactive),8.69 µM (inactive),9.2 µM (inactive),1.44 µM (inactive)
